These results are taken from patent publication US6608086B2, “Dihydropyridines and new uses thereof” (Synaptic Pharmaceutical Corporation, priority 1993, dated 2003).

Structures are written as SMILES. Read-outs that look alike come from different tables or passages of the source.

Experiment [1] has as its target T1, α1B Human Adrenergic Receptor (Homo sapiens, UniProt P35368).
T1 construct: The entire coding region of α1B (1563 bp); expressed in transfected cells
T1 sequence (P35368 1-520): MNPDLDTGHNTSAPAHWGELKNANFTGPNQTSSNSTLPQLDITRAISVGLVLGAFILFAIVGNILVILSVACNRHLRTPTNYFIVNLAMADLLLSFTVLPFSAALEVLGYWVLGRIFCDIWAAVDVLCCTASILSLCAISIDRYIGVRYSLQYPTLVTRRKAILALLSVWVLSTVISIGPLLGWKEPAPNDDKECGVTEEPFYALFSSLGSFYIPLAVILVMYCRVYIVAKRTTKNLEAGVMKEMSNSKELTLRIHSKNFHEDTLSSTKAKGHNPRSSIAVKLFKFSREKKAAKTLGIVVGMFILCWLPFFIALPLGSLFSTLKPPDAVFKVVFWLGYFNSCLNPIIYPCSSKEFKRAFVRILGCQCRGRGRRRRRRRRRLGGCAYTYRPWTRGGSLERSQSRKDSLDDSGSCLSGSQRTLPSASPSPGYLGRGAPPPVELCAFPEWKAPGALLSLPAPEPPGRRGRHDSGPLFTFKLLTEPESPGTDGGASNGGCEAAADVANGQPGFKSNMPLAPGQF
Put plainly: Radioligand binding, [3H]prazosin, cloned human α1B adrenergic receptor. The procedure, abridged:
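[3H]prazosin (0.5 nM) binding was run for 20 min at 37° C in pH 7.5 Tris/MgCl2/ascorbate buffer on membranes of LM(tk−) cells stably expressing the cloned receptor. Filtration through GF/B ended the reaction; 10 μM phentolamine gave nonspecific binding.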

For another experiment, the target named is T2, α2A receptor (Homo sapiens, UniProt P08913).
T2 construct: host or cells: LM(tk-) cells, line L-α2A
T2 sequence (P08913 1-465): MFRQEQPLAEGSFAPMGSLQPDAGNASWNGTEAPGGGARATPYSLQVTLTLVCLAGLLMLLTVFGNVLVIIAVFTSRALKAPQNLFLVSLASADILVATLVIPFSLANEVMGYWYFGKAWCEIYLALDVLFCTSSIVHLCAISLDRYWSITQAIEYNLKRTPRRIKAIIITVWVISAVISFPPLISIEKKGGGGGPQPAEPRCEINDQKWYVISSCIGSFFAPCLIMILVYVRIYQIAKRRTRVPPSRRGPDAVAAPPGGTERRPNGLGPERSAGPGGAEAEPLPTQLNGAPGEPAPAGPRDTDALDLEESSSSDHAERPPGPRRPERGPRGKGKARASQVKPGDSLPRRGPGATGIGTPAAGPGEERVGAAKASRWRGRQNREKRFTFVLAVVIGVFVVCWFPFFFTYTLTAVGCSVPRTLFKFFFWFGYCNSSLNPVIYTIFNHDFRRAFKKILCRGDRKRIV
The experiment can be described thus: Competition binding, [3H]rauwolscine, human α2A receptor. The method in brief: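 LM(tk−) lysates, stable α2A/α2B/α2C transfectants; 25 mM glycylglycine pH 7.6 (RT). [3H]rauwolscine 0.5 nM, equilibrium competition; NSB 10 μM phentolamine. GF/B filtration, cell harvester.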

The target in experiment [2] is T3, α1C Human Adrenergic Receptor (Homo sapiens, UniProt P35348).
T3 construct: The entire coding region of α1C (1401 bp); expressed in transfected cells
T3 sequence (P35348 1-466): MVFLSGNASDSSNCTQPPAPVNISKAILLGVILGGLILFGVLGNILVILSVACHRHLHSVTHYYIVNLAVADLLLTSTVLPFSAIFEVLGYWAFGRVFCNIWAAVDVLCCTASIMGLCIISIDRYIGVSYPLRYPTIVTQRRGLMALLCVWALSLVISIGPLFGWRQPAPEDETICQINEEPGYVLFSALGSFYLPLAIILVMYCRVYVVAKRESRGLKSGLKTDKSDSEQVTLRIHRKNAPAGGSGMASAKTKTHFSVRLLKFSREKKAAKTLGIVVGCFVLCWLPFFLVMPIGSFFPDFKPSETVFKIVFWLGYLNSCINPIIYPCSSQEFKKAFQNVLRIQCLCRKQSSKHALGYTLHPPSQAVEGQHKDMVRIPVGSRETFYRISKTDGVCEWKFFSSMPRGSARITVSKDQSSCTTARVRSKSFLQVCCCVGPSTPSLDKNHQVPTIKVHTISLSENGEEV
Put plainly: Radioligand binding, [3H]prazosin, cloned human α1C adrenergic receptor. The method in brief:
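Stably transfected mouse LM(tk−) fibroblast membranes bearing the cloned human α1C adrenoceptor served as receptor source. Specific binding was taken as the portion of 0.5 nM [3H]prazosin displaceable by 10 μM phentolamine after 20 min at 37° C., pH 7.5, in Mg2+/ascorbate-containing Tris buffer.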

The mark [3] stands for this setting: pKi alpha-1 1b, cloned human α1B receptor, LM(tk−) cell membranes.
The mark [4] stands for this setting: [3H]rauwolscine, human α2A receptor, LM(tk−) cells, read-out: pKi alpha-2 2a (converted).
[5] abbreviates: pKi alpha-1 1c, cloned human α1C receptor, LM(tk−) cell membranes.

Turning to `CCC1=C(C(=O)NCCCN2CCC(c3ccccc3)(c3ccccc3)CC2)C(c2ccc(N)cc2)C(C(=O)OC)=C(C)N1` (stereo not drawn) [Example 114, 4-(4-Aminophenyl)-2-ethyl-1,4-dihydro-5-methoxycarbonyl-6-methyl-3-(N-(3-(4,4-diphenylpiperidin-1-yl)propyl)carboxamido)-pyridine], the Ki is 204 nM in experiment [1] (cloned human α1B receptor, LM(tk−) cell membranes, read-out: pKi alpha-1 1b (converted)); 2090 nM at α2A receptor; 10.2 nM in experiment [2] (cloned human α1C receptor, LM(tk−) cell membranes, read-out: pKi alpha-1 1c (converted)).

As to `COC(=O)C1=C(C)NC(C)=C(C(=O)NCCCN2CCC(c3ccccc3)(c3ccccc3)CC2)C1c1ccc(Cl)c(Cl)c1` (stereo not drawn) [Example 24, 4-(3,4-Dichlorophenyl)-1,4-dihydro-3-methoxycarbonyl-2,6-dimethyl-5-(3-(D 44-diphenylpiperidin-1-yl)propylcarboxamido)pyridine], the Ki is 115 nM in experiment [1] (cloned human receptor in LM(tk-) cell membranes, SEM and n in lines below, read-out: pKi alpha-1 1b (converted)); 912 nM at α2A receptor; 1.86 nM in experiment [2] (cloned human receptor in LM(tk-) cell membranes, SEM and n in lines below, read-out: pKi alpha-1 1c (converted)).

Regarding `CCC1=C(C(N)=O)C(c2ccc(S(C)(=O)=O)cc2)C(C(=O)NCCCN2CCC(c3ccccc3)(c3ccccc3)CC2)=C(CC)N1` (stereo not drawn) [Example 116, 5-Carboxamido-2,6-diethyl-1,4-dihydro-4-(4-methanesulfonylphenyl)-3-(N-(3-(4,4-diphenylpiperidin-1-yl)propyl)carboxamido)-pyridine], the Ki in experiment [1] (setting [3]) is 759 nM; on α2A receptor (setting [4]), 1450 nM; in experiment [2] (setting [5]), 3.89 nM.

In the case of `CC(C)C1=C(C(N)=O)C(c2ccc([N+](=O)[O-])cc2)C(C(=O)NCCCN2CCC(c3ccccc3)(c3ccccc3)CC2)=C(C(C)C)N1` (stereo not drawn) [Example 127], the “pKi alpha-1 1b” value in experiment [1] (cloned human α1B receptor, LM(tk−) cell membranes) amounted to 6.79. Further, on α2A receptor ([3H]rauwolscine, human α2A receptor, LM(tk−) cells), the “pKi alpha-2 2a” value is given as 6.17. This compound also gave a Ki in experiment [2] (setting [5]) of 55 nM.

On to `CC1=C(C(=O)NCCCN2CCC(c3ccccc3)(c3ccccc3)CC2)C(c2ccc([N+](=O)[O-])cc2)C2=C(CCCC2=O)N1` (stereo not drawn) [Example 40, 1,4,5,6,7,8-Hexahydro-2-methyl-4-(4-nitrophenyl)-5-oxo-3-{N-[3-(4,4-diphenylpiperidin-1-yl)propyl]}carboxamidoquinoline], for which the Ki in experiment [1] (pKi alpha-1 1b, cloned human receptor in LM(tk-) cell membranes, SEM and n in lines below) is 275 nM; at α2A receptor ([3H]rauwolscine, LM(tk-) cell line L-α2A, SEM and n in lines below, read-out: pKi alpha-2 2a (converted)), 1860 nM; in experiment [2] (pKi alpha-1 1c, cloned human receptor in LM(tk-) cell membranes, SEM and n in lines below), 13.8 nM.

In the case of `CCC1=C(C(=O)NCCCN2CCC(c3ccccc3)(c3ccccc3)CC2)C(c2ccc([N+](=O)[O-])cc2)C(C(N)=O)=C(COCCN=[N+]=[N-])N1` (stereo not drawn) [Example 149, 2-((2-Azidoethyl)oxy)methyl-3-carboxamido-6-ethyl-1,4-dihydro-4-(4-nitro) phenyl-5-(N-(3-(4,4-diphenylpiperidin-1-yl)propyl))carboxamidopyridine], the values for the Ki (in experiment [1] (setting [3]); on α2A receptor (setting [4]); in experiment [2] (setting [5])) were 245 nM, 501 nM and 5.5 nM, respectively.
